Test results published in US8343959B2, “N-phenyl-(piperazinyl or homopiperazinyl)-benzenesulfonamide or benzenesulfonyl-phenyl-(piperazine or homopiperazine) compounds suitable for treating disorders that respond to modulation of the serotonin 5-HT6 receptor” (Abbott GmbH & Co. KG, priority 2009, dated 2013).
pKi: −log10 of the molar value. Where a name gives a salt, the structure may show the parent alone. Read-outs that look alike come from different tables or passages of the source.

Target: T1, h-5-HT6 receptor (Homo sapiens, UniProt P50406)
T1 construct: expressed in transfected cells
Assay: 5-HT6 receptor binding assay (displacement of [3H]-LSD)
Method: Displacement of Radioligands Binding to The Following Cloned Human Receptors
Cells from stable clonal cell lines expressing the corresponding receptor (5-HT6, α1-adrenergic, dopamine D2 or histamine H1 receptors) were washed with PBS (w/o Ca^++, Mg^++) and harvested in PBS with 0.02% EDTA. The cells were collected by centrifugation at 500 g for 10 min. at 4° C., washed with PBS and centrifuged (500 g, 10 min. 4° C.). The pellets were stored at −80° C. until use. For membrane preparation, the thawed cell pellet was resuspended in ice-cold sucrose buffer (0.25 M sucrose, 10 mM Hepes (pH 7.4), 1 mM Phenylmethylsulfonyl fluoride (PMSF) in DMSO, 5 μg/ml Pepstatin-A, 3 mM EDTA, 0.025% Bacitracin) and homogenized with a Branson Sonifier W-250 (Settings: Timer 4; Output Control 3; Duty Cycle constant; 2 to 3 cycles). Cell disruption was checked with the aid of a microscope. Remaining unbroken cells were pelleted at 1.000 g for 10 min. at 4° C. The sucrose buffer supernatant was then centrifuged at 60.000 g for 1 h at 4° C. (Beckman Ultrazentrifuge XL 80). The pellet was resuspended in 30 ml ice-cold Tris buffer (20 mM TRIS (pH 7.4), 5 μg/ml Pepstatin A, 0.1 mM PMSF, 3 mM EDTA) by pipetting through a 10 ml serological pipet and centrifuged for 1 h at 4° C. at 60.000 g. A final resuspension was performed in a small volume of ice-cold Tris buffer (see above) by pressing through a serological pipet followed by ultrasonic treatment with a Branson Sonifier W-250 (Settings: Timer 1; Output Control 3; Duty Cycle constant; 1 cycle). Protein concentration was determined (BCA-Kit; Pierce) and aliquots stored at −80° C. or in liquid nitrogen for long-term storage.
All receptor binding experiments were carried out in the corresponding assay buffer in a total volume of 200 μl in the presence of various concentrations of test compound (10^−5 M to 10^−9 M, tenfold serial dilution, duplicate determinations). The assays were terminated by filtration on polyethylenimine (PEI 0.1% or 0.3%) presoaked Packard Unifilter Plates (GF/C or GF/B) with a Tomtec Machin U 96 well-plate harvester. After the plates had been dried for 2 h at 55° C. in a drying chamber scintillation cocktail (BetaPlate Scint; PerkinElmer) was added. Radioactivity was measured in a Microbeta Trilux two hours after the addition of the scintillation mixture. Data derived from liquid scintillation counting were analysed by iterative non-linear regression analysis with the use of the Statistical Analysis System (SAS): a program similar to “LIGAND” as described by Munson and Rodbard (Analytical Biochemistry 107, 220-239 (1980).
HEK293 cells stably expressing the h-5-HT6 receptor (NCBI Reference Sequence XM 001435) were cultured in RPMI1640 medium supplemented with 25 mM HEPES, 10% fetal calf serum and 1-2 mM glutamine. The membrane preparation was performed as described in section 1. […] Non-specific binding was defined with 1 μM methiothepin. The binding reaction was carried out for 3.5 h at room temperature. During the incubation, the plates were shaken on a plate shaker at 100 rpm and terminated by filtration on Packard Unifilter GF/C (0.1% PEI) plates, followed by 2 wash cycles with ice-cold 50 mM Tris-HCl, 5 mM CaCl2.
Data derived from liquid scintillation counting were analyzed by iterative non-linear regression analysis with the use of the Statistical Analysis System (SAS): a program similar to “LIGAND” as described by Munson and Rodbard (Anal. Biochem. 1980, 107, 220-239). Fitting was performed according to formulae described by Feldman (Anal. Biochem. 1972, 48, 317-338). IC50, nH and Ki values were expressed as geometrical mean.

[1] = membranes of HEK293 cells expressing h-5-HT6 receptor, 1 nM [3H]-LSD, read-out: Ki (5HT6)

T1 sequence (P50406 whole entry): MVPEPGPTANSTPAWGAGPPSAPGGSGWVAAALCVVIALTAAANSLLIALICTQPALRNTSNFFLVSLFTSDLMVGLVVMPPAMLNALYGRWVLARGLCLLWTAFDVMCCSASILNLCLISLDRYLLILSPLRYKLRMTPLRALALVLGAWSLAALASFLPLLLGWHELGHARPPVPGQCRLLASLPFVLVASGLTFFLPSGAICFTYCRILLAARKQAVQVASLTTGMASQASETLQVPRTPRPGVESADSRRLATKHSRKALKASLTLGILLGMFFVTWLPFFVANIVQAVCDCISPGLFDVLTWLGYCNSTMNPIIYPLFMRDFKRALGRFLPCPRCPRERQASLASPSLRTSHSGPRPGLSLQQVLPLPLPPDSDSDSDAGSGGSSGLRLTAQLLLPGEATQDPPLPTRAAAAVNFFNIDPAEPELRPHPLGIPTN

Compound	pKi [1]	pKi
COc1ccc(S(=O)(=O)Nc2ccccc2OC(F)F)cc1N1CCN(C)CC1 [Example 37, N-(2-Difluoromethoxy-phenyl)-4-methoxy-3-(4-methyl-piperazin-1-yl)-benzenesulfonamide hydrochloride]	> 8.00	
CCCN(c1cccc(OC(F)F)c1)S(=O)(=O)c1ccc(C)c(N2CCNCC2)c1 [Example 12, N-(3-Difluoromethoxy-phenyl)-4-methyl-3-piperazin-1-yl-N-propyl-benzenesulfonamide hydrochloride]	> 7.30	
COc1ccc(S(=O)(=O)N(C)c2cccc(OC(F)F)c2)cc1N1CCNCC1 [Example 32, N-(3-Difluoromethoxy-phenyl)-4-methoxy-N-methyl-3-piperazin-1-yl-benzenesulfonamide hydrochloride]	> 8.00	
Cc1ccc(S(=O)(=O)N(CC2CC2)c2cccc(OC(F)F)c2)cc1N1CCNCC1 [Example 10, N-Cyclopropylmethyl-N-(3-difluoromethoxy-phenyl)-4-methyl-3-piperazin-1-yl-benzenesulfonamide hydrochloride]	> 7.30	
CCCN(c1cccc(OC(F)F)c1)S(=O)(=O)c1ccc(OC)c(N2CCNCC2)c1 [Example 34, N-(3-Difluoromethoxy-phenyl)-4-methoxy-3-piperazin-1-yl-N-propyl-benzenesulfonamide hydrochloride]	> 8.00	
CN1CCN(c2cccc(S(=O)(=O)c3cccc(OC(F)F)c3)c2)CC1 [Example 46, 1-[3-(3-Difluoromethoxy-benzenesulfonyl)-phenyl]-4-methyl-piperazine hydrochloride]	> 8.00	
CCN(c1ccc(OC)c(OC(F)F)c1)S(=O)(=O)c1ccc(OC)c(N2CCNCC2)c1 [Example 30, N-(3-Difluoromethoxy-4-methoxy-phenyl)-N-ethyl-4-methoxy-3-piperazin-1-yl-benzenesulfonamide hydrochloride]	> 8.00	
COc1ccc(S(=O)(=O)c2ccc(OC)c(N3CCNCC3)c2)cc1OC(F)F [Example 49, 1-[5-(3-Difluoromethoxy-4-methoxy-benzenesulfonyl)-2-methoxy-phenyl]-piperazine hydrochloride]	> 8.00	
Cc1ccc(S(=O)(=O)Nc2ccccc2OC(F)F)cc1N1CCNCC1 [Example 17, N-(2-Difluoromethoxy-phenyl)-4-methyl-3-piperazin-1-yl-benzenesulfonamide hydrochloride]		> 8.00
COc1cc(NS(=O)(=O)c2ccc(OC)c(N3CCN(C)CC3)c2)ccc1OC(F)F [Example 90, N-(4-Difluoromethoxy-3-methoxy-phenyl)-4-methoxy-3-(4-methyl-piperazin-1-yl)-benzenesulfonamide]	> 7.30	
COc1ccc(N(C)S(=O)(=O)c2ccc(OC)c(N3CCNCC3)c2)cc1OC(F)F [Example 28, N-(3-Difluoromethoxy-4-methoxy-phenyl)-4-methoxy-N-methyl-3-piperazin-1-yl-benzenesulfonamide hydrochloride]	> 7.30	
COc1ccc(S(=O)(=O)Nc2cccc(OC(F)F)c2)cc1N1CCN(C)CC1 [Example 35, N-(3-Difluoromethoxy-phenyl)-4-methoxy-3-(4-methyl-piperazin-1-yl)-benzenesulfonamide hydrochloride]	> 8.00	

More lines, main results first:

pKi [1]	Compound	pKi
> 6.30	COc1ccc(NS(=O)(=O)c2ccc(C)c(N3CCN(C)CC3)c2)cc1OC(F)F [Example 86, N-(3-Difluoromethoxy-4-methyoxy-phenyl)-4-methyl-3-(4-methyl-piperazin-1-yl)-benzenesulfonamide hydrochloride]	
> 8.00	COc1ccc(S(=O)(=O)Nc2cc(OC(F)F)ccc2C)cc1N1CCNCC1 [Example 59, N-(5-Difluoromethoxy-2-methyl-phenyl)-4-methoxy-3-piperazin-1-yl-benzenesulfonamide hydrochloride]	
> 8.00	CCc1ccc(S(=O)(=O)Nc2cc(Cl)ccc2OC(F)F)cc1N1CCNCC1 [Example 61, N-(5-Chloro-2-difluoromethoxy-phenyl)-4-ethyl-3-piperazin-1-yl-benzenesulfonamide hydrochloride]	
> 7.30	Cc1ccc(S(=O)(=O)Nc2cc(Cl)ccc2OC(F)F)cc1N1CCN(C)CC1 [Example 56, N-(5-Chloro-2-difluoromethoxy-phenyl)-4-methyl-3-(4-methyl-piperazin-1-yl)-benzenesulfonamide hydrochloride]	
> 7.30	Cc1ccc(NS(=O)(=O)c2ccc(C)c(N3CCCNCC3)c2)cc1OC(F)F [Example 98, 3-[1,4]Diazepan-1-yl-N-(3-difluoromethoxy-4-methyl-phenyl)-4-methyl-benzenesulfonamide hydrochloride]	
> 8.00	COc1ccc(S(=O)(=O)Nc2ccc(F)cc2OC(F)F)cc1N1CCN(C)CC1 [Example 69, N-(2-Difluoromethoxy-4-fluoro-phenyl)-4-methoxy-3-(4-methyl-piperazin-1-yl)-benzenesulfonamide hydrochloride]	
> 8.00	Cc1ccc(S(=O)(=O)Nc2ccccc2OC(F)F)cc1N1CCCNCC1 [Example 97, 3-[1,4]Diazepan-1-yl-N-(2-difluoromethoxy-phenyl)-4-methyl-benzenesulfonamide hydrochloride]	
> 8.00	Cc1ccc(OC(F)F)c(NS(=O)(=O)c2ccc(C)c(N3CCN[C@@H](C)C3)c2)c1 [Example 64, N-(2-Difluoromethoxy-5-methyl-phenyl)-4-methyl-3-((S)-3-methyl-piperazin-1-yl)-benzenesulfonamide hydrochloride]	
> 7.30	Cc1cc(NS(=O)(=O)c2ccc(C)c(N3CCN(C)CC3)c2)ccc1OC(F)F [Example 87, N-(4-Difluoromethoxy-3-methyl-phenyl)-4-methyl-3-(4-methyl-piperazin-1-yl)-benzenesulfonamide hydrochloride]	
> 7.30	Cc1ccc(S(=O)(=O)Nc2ccc(F)cc2OC(F)F)cc1N1CCNCC1 [Example 74, N-(2-Difluoromethoxy-4-fluoro-phenyl)-4-methyl-3-piperazin-1-yl-benzenesulfonamide hydrochloride]	
> 8.00	COc1ccc(S(=O)(=O)Nc2ccc(C)c(OC(F)F)c2)cc1N1CCN(C)CC1 [Example 89, N-(3-Difluoromethoxy-4-methyl-phenyl)-4-methoxy-3-(4-methyl-piperazin-1-yl)-benzenesulfonamide hydrochloride]	
> 8.00	Cc1ccc(OC(F)F)c(NS(=O)(=O)c2ccc(C)c(N3CCN(C)CC3)c2)c1 [Example 92, N-(2-Difluoromethoxy-5-methyl-phenyl)-4-methyl-3-(4-methyl-piperazin-1-yl)-benzenesulfonamide hydrochloride]	
> 6.30	CCN(c1ccccc1OC(F)F)S(=O)(=O)c1ccc(C)c(N2CCNCC2)c1 [Example 15, N-(2-Difluoromethoxy-phenyl)-N-ethyl-4-methyl-3-piperazin-1-yl-benzene sulfonamide hydrochloride]	
> 8.00	CCc1ccc(S(=O)(=O)Nc2cc(C)ccc2OC(F)F)cc1N1CCNCC1 [Example 65, N-(2-Difluoromethoxy-5-methyl-phenyl)-4-ethyl-3-piperazin-1-yl-benzenesulfonamide hydrochloride]	
> 8.00	COc1ccc(S(=O)(=O)Nc2cc(OC(F)F)ccc2C)cc1N1CCN(C)CC1 [Example 55, N-(5-Difluoromethoxy-2-methyl-phenyl)-4-methoxy-3-(4-methyl-piperazin-1-yl)-benzenesulfonamide hydrochloride]	
> 7.30	COc1ccc(OC(F)F)c(NS(=O)(=O)c2ccc(C)c(N3CCN(C)CC3)c2)c1 [Example 78, N-(2-Difluoromethoxy-5-methoxy-phenyl)-4-methyl-3-(4-methyl-piperazin-1-yl)-benzenesulfonamide trifluoroacetate]	
